Results as given in PubChem BioAssay (NCI).
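All cell lines were grown in 96-well plates and treated with compound for 48 hours. TGI is the concentration that stops growth completely.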

Columns and labels:
Test in all cases: growth of human tumour cells (NCI), 48 h
[1] = test system: OVCAR-8 ovarian
[2] = test system: K-562 leukemia
[3] = test system: DU-145 prostate
[4] = test system: SR leukemia
[5] = test system: PC-3 prostate
[6] = test system: SF-295 CNS
[7] = test system: CAKI-1 renal
[8] = test system: OVCAR-3 ovarian
[9] = test system: SN12C renal
[10] = test system: T-47D breast

How did the TGI [1] turn out when `CCc1nc2ccc(NCCN(C)C)c3c(=O)c4ccccc4n1c23` was run?
The TGI was 4.76 µM.

What about the TGI [2] of the same molecule?
The TGI was 22 µM.

And the TGI [3]?
The TGI was 3.4 µM.

What about the TGI [4] of the same molecule?
The TGI was 7.66 µM.

And the TGI [5]?
The TGI was 6.44 µM.

What about the TGI [6] of the same molecule?
The TGI was 5.04 µM.

And the TGI [7]?
The TGI was 7.89 µM.

And the TGI [8]?
The TGI was 4.45 µM.

What about the TGI [9] of the same molecule?
The TGI was 10.6 µM.

What about the TGI [10] of the same molecule?
The TGI was 20.8 µM.

For `CC(=O)N(O)c1ccc(-c2nc3ccccc3s2)cc1`, which TGI [1] is on record?
The TGI was over 100 µM.

What about the TGI [2] of the same molecule?
Its TGI is over 100 µM.

What about the TGI [3] of the same molecule?
The TGI was over 100 µM.

What about the TGI [4] of the same molecule?
The TGI was over 100 µM.

And the TGI [5]?
The TGI was over 100 µM.

And the TGI [6]?
The TGI was over 100 µM.

What about the TGI [7] of the same molecule?
Its TGI is over 100 µM.

What about the TGI [8] of the same molecule?
The TGI was over 100 µM.

What about the TGI [9] of the same molecule?
The TGI was over 100 µM.

What about the TGI [10] of the same molecule?
Its TGI is over 100 µM.

Which results are given for `COc1cc(N(Cc2ccc3oc(=O)c(-c4ccccc4)nc3c2)Cc2ccc3oc(=O)c(-c4ccccc4)nc3c2)cc(OC)c1OC`?
TGI [1]: > 10 µM; TGI [2]: > 10 µM; TGI [3]: > 10 µM; TGI [4]: > 10 µM; TGI [5]: > 10 µM; TGI [6]: > 10 µM; TGI [7]: > 10 µM; TGI [8]: > 10 µM; TGI [9]: > 10 µM; TGI [10]: > 10 µM

What does the source list for `Cc1ccc2c(c1)C(=O)C(C1OC(=O)c3ccccc31)C2` (stereo unspecified)?
TGI [1]: > 100 µM; TGI [2]: > 100 µM; TGI [3]: > 100 µM; TGI [4]: > 100 µM; TGI [5]: > 100 µM; TGI [6]: > 100 µM; TGI [7]: > 100 µM; TGI [8]: > 100 µM; TGI [9]: > 100 µM; TGI [10]: > 100 µM

With `Cn1c(N/N=C/c2ccccc2)nc(-c2ccc([N+](=O)[O-])cc2)c(C#N)c1=O` as the molecule, how does the TGI [1] read?
The TGI was over 100 µM.

What about the TGI [2] of the same molecule?
The TGI was over 100 µM.

What about the TGI [3] of the same molecule?
Its TGI is over 100 µM.

And the TGI [4]?
Its TGI is over 100 µM.

And the TGI [5]?
Its TGI is over 100 µM.

What about the TGI [6] of the same molecule?
The TGI was over 100 µM.

And the TGI [7]?
The TGI was over 100 µM.

What about the TGI [8] of the same molecule?
The TGI was 44.9 µM.

What about the TGI [9] of the same molecule?
The TGI was over 100 µM.

What about the TGI [10] of the same molecule?
The TGI was over 100 µM.

`O=C(NNc1nc(-c2ccccc2)cs1)C(F)(F)F` was tested. Which TGI [1] did it give?
The TGI was over 100 µM.

And the TGI [2]?
The TGI was 93.5 µM.

And the TGI [3]?
The TGI was over 100 µM.

And the TGI [4]?
Its TGI is over 100 µM.

And the TGI [5]?
The TGI was over 100 µM.

And the TGI [6]?
Its TGI is over 100 µM.

What about the TGI [7] of the same molecule?
The TGI was over 100 µM.

What about the TGI [9] of the same molecule?
The TGI was over 100 µM.

What about the TGI [10] of the same molecule?
The TGI was over 100 µM.

How did the TGI [1] turn out when `C/C1=C\C=C(\C(C)C)CC/C(C(=O)O)=C\CC/C(C)=C/CC1` was run?
The TGI was over 100 µM.

What about the TGI [2] of the same molecule?
The TGI was 74.8 µM.

What about the TGI [3] of the same molecule?
Its TGI is over 100 µM.

And the TGI [4]?
The TGI was 38.6 µM.

And the TGI [5]?
Its TGI is 35.2 µM.

What about the TGI [6] of the same molecule?
Its TGI is 47.9 µM.

And the TGI [7]?
The TGI was 88.3 µM.

And the TGI [8]?
Its TGI is 31.4 µM.

And the TGI [9]?
Its TGI is 45.9 µM.

What about the TGI [10] of the same molecule?
Its TGI is over 100 µM.

`S=C(Nc1ccc2cn[nH]c2c1)Nc1ccc2cn[nH]c2c1` was tested. Which TGI [1] did it give?
Its TGI is over 100 µM.

What about the TGI [2] of the same molecule?
Its TGI is over 100 µM.

And the TGI [3]?
The TGI was over 100 µM.

What about the TGI [4] of the same molecule?
Its TGI is over 100 µM.

And the TGI [5]?
Its TGI is over 100 µM.

What about the TGI [6] of the same molecule?
The TGI was over 100 µM.

And the TGI [7]?
Its TGI is over 100 µM.

What about the TGI [8] of the same molecule?
Its TGI is over 100 µM.

What about the TGI [9] of the same molecule?
Its TGI is over 100 µM.

And the TGI [10]?
Its TGI is over 100 µM.

Which TGI [1] does the source give for `CC(=N\N)/C(C)=N/N=C(C)/C(C)=N/N=C(C)/C(C)=N/N` here?
The TGI was over 100 µM.

And the TGI [2]?
The TGI was over 100 µM.

And the TGI [3]?
Its TGI is over 100 µM.

And the TGI [4]?
Its TGI is over 100 µM.

And the TGI [5]?
Its TGI is over 100 µM.

What about the TGI [6] of the same molecule?
Its TGI is over 100 µM.

And the TGI [7]?
Its TGI is over 100 µM.

And the TGI [8]?
Its TGI is over 100 µM.

And the TGI [9]?
The TGI was over 100 µM.

And the TGI [10]?
The TGI was over 100 µM.

`CCOC(=O)Cc1nc2c(N)ncnc2n1C1OC(COC(C)=O)C(OC(C)=O)C1OC(C)=O` (stereo unspecified) was tested. Which TGI [1] did it give?
Its TGI is over 100 µM.

And the TGI [2]?
Its TGI is over 100 µM.

What about the TGI [3] of the same molecule?
Its TGI is over 100 µM.

And the TGI [4]?
Its TGI is over 100 µM.

And the TGI [5]?
Its TGI is over 100 µM.

What about the TGI [6] of the same molecule?
Its TGI is over 100 µM.

What about the TGI [7] of the same molecule?
Its TGI is over 100 µM.

And the TGI [8]?
Its TGI is over 100 µM.

And the TGI [9]?
Its TGI is over 100 µM.

And the TGI [10]?
Its TGI is over 100 µM.

What does the source list for `C(=C\N1CCCCC1)/c1nnnn1-c1ccccc1`?
TGI [1]: 95 µM; TGI [2]: > 100 µM; TGI [3]: > 100 µM; TGI [4]: 55 µM; TGI [5]: > 100 µM; TGI [6]: 66.9 µM; TGI [7]: 38.2 µM; TGI [8]: 90.6 µM; TGI [9]: > 100 µM; TGI [10]: 76.3 µM

Which TGI [1] does the source give for `O=C1Nc2ccccc2/C1=c1\[nH]c(=O)/c(=C\c2ccc(OCc3ccccc3)cn2)[nH]c1=O` here?
Its TGI is over 100 µM.

And the TGI [2]?
The TGI was 75.9 µM.

What about the TGI [3] of the same molecule?
The TGI was over 100 µM.

What about the TGI [4] of the same molecule?
Its TGI is 69.4 µM.

And the TGI [5]?
Its TGI is over 100 µM.

What about the TGI [6] of the same molecule?
The TGI was 50.5 µM.

And the TGI [7]?
The TGI was over 100 µM.

And the TGI [8]?
The TGI was over 100 µM.

What about the TGI [9] of the same molecule?
Its TGI is over 100 µM.

What about the TGI [10] of the same molecule?
Its TGI is over 100 µM.

Which TGI [1] does the source give for `CC(=O)Oc1ccc(/C=C/C(=O)O[C@@H](C(=O)O)[C@@H](OC(=O)/C=C/c2ccc(OC(C)=O)c(OC(C)=O)c2)C(=O)O)cc1OC(C)=O` here?
The TGI was over 100 µM.

And the TGI [2]?
The TGI was over 100 µM.

What about the TGI [3] of the same molecule?
The TGI was over 100 µM.

And the TGI [4]?
Its TGI is over 100 µM.

What about the TGI [5] of the same molecule?
The TGI was over 100 µM.

What about the TGI [6] of the same molecule?
Its TGI is over 100 µM.

And the TGI [7]?
The TGI was over 100 µM.

What about the TGI [8] of the same molecule?
The TGI was over 100 µM.

What about the TGI [9] of the same molecule?
Its TGI is over 100 µM.

What about the TGI [10] of the same molecule?
Its TGI is over 100 µM.

For `CSc1c(C(=O)Nc2ccc(Cl)cc2)c(N)n(N)c(=O)c1C#N`, which TGI [1] is on record?
The TGI was over 100 µM.

And the TGI [2]?
The TGI was over 100 µM.

And the TGI [3]?
Its TGI is over 100 µM.

And the TGI [4]?
The TGI was over 100 µM.

What about the TGI [5] of the same molecule?
The TGI was over 100 µM.

What about the TGI [7] of the same molecule?
The TGI was over 100 µM.

What about the TGI [8] of the same molecule?
Its TGI is over 100 µM.

What about the TGI [9] of the same molecule?
The TGI was over 100 µM.

And the TGI [10]?
Its TGI is over 100 µM.

What does the source list for `CN(C)CCNC(=O)c1cccc2c1Oc1c(cccc1[N+](=O)[O-])O2`?
TGI [1]: 16.5 µM; TGI [2]: 7.55 µM; TGI [3]: 5.37 µM; TGI [4]: 15.6 µM; TGI [5]: 12.5 µM; TGI [6]: 5.09 µM; TGI [7]: 1.16 µM; TGI [8]: 13.1 µM; TGI [9]: 3.72 µM; TGI [10]: 1.93 µM

`CN(C)/N=C1\CC(c2ccccc2)C(C#N)(C#N)C1(C#N)C#N` (stereo unspecified) was tested. Which TGI [1] did it give?
Its TGI is 41.9 µM.

What about the TGI [2] of the same molecule?
Its TGI is over 100 µM.

What about the TGI [3] of the same molecule?
Its TGI is 36.2 µM.

And the TGI [4]?
The TGI was over 100 µM.

What about the TGI [5] of the same molecule?
Its TGI is 35.6 µM.

And the TGI [6]?
The TGI was 48.1 µM.

What about the TGI [7] of the same molecule?
Its TGI is 21.9 µM.

And the TGI [9]?
The TGI was 36.9 µM.

What about the TGI [10] of the same molecule?
Its TGI is 50.3 µM.

For `C=CCOCn1cc(C)c(=O)[nH]c1=O`, which TGI [1] is on record?
Its TGI is over 100 µM.

What about the TGI [2] of the same molecule?
Its TGI is over 100 µM.

What about the TGI [3] of the same molecule?
The TGI was over 100 µM.

What about the TGI [4] of the same molecule?
The TGI was over 100 µM.

What about the TGI [5] of the same molecule?
The TGI was over 100 µM.

What about the TGI [6] of the same molecule?
The TGI was over 100 µM.

And the TGI [7]?
Its TGI is over 100 µM.

And the TGI [9]?
Its TGI is over 100 µM.

And the TGI [10]?
The TGI was over 100 µM.
